Test results from ChEMBL document CHEMBL1681696, “Discovery of benzimidazole pyrrolidinyl amides as prolylcarboxypeptidase inhibitors” (Bioorg Med Chem Lett, 2011).
Active and inactive are the calls of the source. The rule behind the calls is not given here.

What was measured:
[1] = biological target: T1, Lysosomal Pro-X carboxypeptidase (Mus musculus, UniProt Q7TMR0); assay: Inhibition of mouse PrCP
T1 sequence (Q7TMR0 whole entry): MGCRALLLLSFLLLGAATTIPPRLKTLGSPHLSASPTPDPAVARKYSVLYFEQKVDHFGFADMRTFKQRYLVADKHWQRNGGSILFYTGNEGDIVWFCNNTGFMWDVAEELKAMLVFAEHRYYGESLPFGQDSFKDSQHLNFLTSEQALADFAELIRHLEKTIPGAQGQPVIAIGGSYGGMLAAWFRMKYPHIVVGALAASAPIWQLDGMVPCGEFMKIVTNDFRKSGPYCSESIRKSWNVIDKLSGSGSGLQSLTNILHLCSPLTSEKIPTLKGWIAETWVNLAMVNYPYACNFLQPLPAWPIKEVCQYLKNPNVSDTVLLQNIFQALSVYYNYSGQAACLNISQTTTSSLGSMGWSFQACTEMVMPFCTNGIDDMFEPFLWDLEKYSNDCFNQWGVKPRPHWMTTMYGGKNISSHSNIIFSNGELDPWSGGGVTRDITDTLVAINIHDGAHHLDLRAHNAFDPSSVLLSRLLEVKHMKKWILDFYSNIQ

[2] = biological target: T1, Lysosomal Pro-X carboxypeptidase; assay: Inhibition of PrCP in mouse plasma assessed as angiotensin 3 cleavage; assay type: cell-free
[3] = biological target: T2, Lysosomal Pro-X carboxypeptidase (Homo sapiens) (UniProt P42785); assay: Inhibition of human PrCP at 5 uM
T2 sequence (whole entry): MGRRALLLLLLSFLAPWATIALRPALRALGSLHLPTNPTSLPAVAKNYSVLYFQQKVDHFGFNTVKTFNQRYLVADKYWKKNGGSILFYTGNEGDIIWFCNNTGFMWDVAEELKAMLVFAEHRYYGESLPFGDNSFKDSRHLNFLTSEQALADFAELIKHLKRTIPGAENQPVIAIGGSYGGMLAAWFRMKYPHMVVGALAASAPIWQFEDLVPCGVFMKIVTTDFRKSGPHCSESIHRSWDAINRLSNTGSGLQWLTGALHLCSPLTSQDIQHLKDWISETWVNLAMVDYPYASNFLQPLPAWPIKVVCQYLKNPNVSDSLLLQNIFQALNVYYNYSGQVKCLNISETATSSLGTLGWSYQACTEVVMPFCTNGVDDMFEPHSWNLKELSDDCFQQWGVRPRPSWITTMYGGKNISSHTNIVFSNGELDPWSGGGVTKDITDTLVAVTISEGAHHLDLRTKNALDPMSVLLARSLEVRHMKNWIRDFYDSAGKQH

[4] = Clearance in mouse at 1 mg/kg, iv and 2 mg/kg, po; assay type: ADME, organism-based; details: in vivo
[5] = Half life in mouse at 1 mg/kg, iv and 2 mg/kg, po; assay type: ADME, organism-based; details: in vivo
[6] = Oral bioavailability in mouse at 2 mg/kg; assay type: ADME, organism-based; details: in vivo
[7] = Volume of distribution at steady state in mouse at 1 mg/kg, iv and 2 mg/kg, po; assay type: ADME, organism-based; details: in vivo, read-out: Vdss
[8] = Drug level in wild type CF1 mouse plasma at 0.5 mg/kg after 4 hrs; assay type: ADME, organism-based; set-up: dose 0.5 mg/kg; details: read-out: Drug uptake
Mus musculus [9] = organism: Mus musculus; details: Plasma, 10 mg/kg
Description: Inhibition of ex vivo PrCP engagement in eDIO mouse plasma at 10 mg/kg, sc by continuous infusion pump for 7 days

[10] = Plasma concentration in PrCP knockout mouse at 12 mg/kg sc by continuous infusion pump qd for 7 days; assay type: ADME, organism-based; set-up: dose 12 mg/kg, route subcutaneous
Mus musculus [11] = organism: Mus musculus; details: Plasma, 30 mg/kg
Description: Inhibition of ex vivo PrCP engagement in eDIO mouse plasma at 30 mg/kg, sc by continuous infusion pump for 7 days

[12] = Drug level in mdr1a deficient mouse brain at 0.5 mg/kg after 4 hrs; assay type: ADME, organism-based; set-up: dose 0.5 mg/kg; details: read-out: Drug uptake
[13] = Plasma concentration in eDIO mouse at 12 mg/kg sc by continuous infusion pump qd for 7 days; assay type: ADME, organism-based; set-up: dose 12 mg/kg, route subcutaneous
[14] = Ratio of drug level in brain to plasma in wild type CF1 mouse at 0.5 mg/kg after 0.5 hrs; assay type: ADME, organism-based; set-up: dose 0.5 mg/kg; details: read-out: BPR
Mus musculus [15] = assay: Antiobesity activity in PrCP knockout mouse assessed as reduction of food intake at 12 mg/kg sc by continuous infusion pump qd for 7 days; assay type: functional, organism-based; set-up: dose 12 mg/kg
[16] = Ratio of drug level in brain to plasma in mdr1a deficient mouse at 0.5 mg/kg after 4 hrs; assay type: ADME, organism-based; set-up: dose 0.5 mg/kg; details: read-out: BPR
[17] = Ratio of drug level in brain to plasma in mdr1a deficient mouse at 0.5 mg/kg after 0.5 hrs; assay type: ADME, organism-based; set-up: dose 0.5 mg/kg; details: read-out: BPR
Mus musculus [18] = assay: Antiobesity activity in PrCP knockout mouse assessed as reduction of body weight at 12 mg/kg sc by continuous infusion pump qd for 7 days; assay type: functional, organism-based; set-up: dose 12 mg/kg
Mus musculus [19] = assay: Antiobesity activity in eDIO mouse assessed as reduction of food intake at 12 mg/kg sc by continuous infusion pump qd for 7 days; assay type: functional, organism-based; set-up: dose 12 mg/kg
[20] = Plasma concentration in eDIO mouse at 10 to 60 mg/kg, sc by continuous infusion pump for 7 days; assay type: ADME, organism-based; set-up: dose 10-60 mg/kg, route subcutaneous
[21] = Ratio of drug level in brain to plasma in wild type CF1 mouse at 0.5 mg/kg after 4 hrs; assay type: ADME, organism-based; set-up: dose 0.5 mg/kg; details: read-out: BPR
Mus musculus [22] = assay: Inhibition of ex vivo PrCP engagement in eDIO mouse plasma at 60 mg/kg, sc by continuous infusion pump for 7 days additionally treated 2 uM of compound; assay type: functional; details: 168 h, route subcutaneous
[23] = Drug level in mdr1a deficient mouse brain at 0.5 mg/kg after 0.5 hrs; assay type: ADME, organism-based; set-up: dose 0.5 mg/kg; details: read-out: Drug uptake
[24] = Drug level in mdr1a deficient mouse plasma at 0.5 mg/kg after 4 hrs; assay type: ADME, organism-based; set-up: dose 0.5 mg/kg; details: read-out: Drug uptake
[25] = Drug level in mdr1a deficient mouse plasma at 0.5 mg/kg after 0.5 hrs; assay type: ADME, organism-based; set-up: dose 0.5 mg/kg; details: read-out: Drug uptake
[26] = Drug level in wild type CF1 mouse brain at 0.5 mg/kg after 4 hrs; assay type: ADME, organism-based; set-up: dose 0.5 mg/kg; details: read-out: Drug uptake
Mus musculus [27] = assay: Inhibition of ex vivo PrCP engagement in eDIO mouse plasma at 60 mg/kg, sc by continuous infusion pump for 7 days; assay type: functional; details: 168 h, route subcutaneous
Mus musculus [28] = assay: Antiobesity activity in eDIO mouse assessed as reduction of body weight at 12 mg/kg sc by continuous infusion pump qd for 7 days; assay type: functional, organism-based; set-up: dose 12 mg/kg
[29] = Drug level in wild type CF1 mouse brain at 0.5 mg/kg after 0.5 hrs; assay type: ADME, organism-based; set-up: dose 0.5 mg/kg; details: read-out: Drug uptake
[30] = Drug level in wild type CF1 mouse plasma at 0.5 mg/kg after 0.5 hrs; assay type: ADME, organism-based; set-up: dose 0.5 mg/kg; details: read-out: Drug uptake

O=C(CCN1CCC(c2cn[nH]c2)CC1)N1CCC[C@H]1c1nc2cc(Cl)c(Cl)cc2[nH]1
IC50 [1]: 107 nM

O=C(CCN1CCC(c2ccncc2)CC1)N1CCC[C@H]1c1nc2cc(Cl)c(Cl)cc2[nH]1
IC50 [2]: 430 nM

O=C(CCN1CCC(c2ccccc2)C1)N1CCC[C@H]1c1nc2cc(Cl)c(Cl)cc2[nH]1 (stereo partly drawn)
inhibition [3]: 93%

O=C(CCN1CCN(c2ccccc2)CC1)N1CCC[C@H]1c1nc2cc(Cl)c(Cl)cc2[nH]1
IC50 [2]: > 10000 nM

O=C(CCN1CCC(n2ncnn2)CC1)N1CCC[C@H]1c1nc2cc(Cl)c(Cl)cc2[nH]1
IC50 [2]: 2900 nM

O=C(CCN1CCC(c2nc(-c3ccncc3)no2)CC1)N1CCC[C@H]1c1nc2cc(Cl)c(Cl)cc2[nH]1
IC50 [2]: 29 nM
clearance [4]: 38 mL/min/kg
half-life [5]: 4.9 h
IC50 [1]: 0.53 nM
bioavailability [6]: 8%
Vd [7]: 5.7 L/kg

O=C(CCN1CCC(c2nc(-c3cccnc3)no2)CC1)N1CCC[C@H]1c1nc2cc(Cl)c(Cl)cc2[nH]1
IC50 [2]: 155 nM

CS(=O)(=O)c1ccc(-c2noc(C3CCN(CCC(=O)N4CCC[C@H]4c4nc5cc(Cl)c(Cl)cc5[nH]4)CC3)n2)cc1
IC50 [2]: 10 nM
clearance [4]: 54 mL/min/kg
half-life [5]: 2.2 h
IC50 [1]: 0.41 nM
bioavailability [6]: 14%
Vd [7]: 7.7 L/kg

O=C(CCN1CCC(c2cnccn2)CC1)N1CCC[C@H]1c1nc2cc(Cl)c(Cl)cc2[nH]1
IC50 [2]: 8000 nM

Cn1nc(C2CCN(CCC(=O)N3CCC[C@H]3c3nc4cc(Cl)c(Cl)cc4[nH]3)CC2)cc1-c1cccnc1
IC50 [2]: 39 nM

O=C(CCN1CCC(c2ccccc2)CC1)N1CCC[C@H]1c1nc2cc(Cl)c(Cl)cc2[nH]1
IC50 [2]: > 10000 nM

O=C(O)c1ccc(-c2noc(C3CCN(CCC(=O)N4CCC[C@H]4c4nc5cc(Cl)c(Cl)cc5[nH]4)CC3)n2)cc1
IC50 [2]: 241 nM

CS(=O)(=O)c1ccc(-c2noc(C3CCN(CCC(=O)N4CCC[C@H]4c4nc5cc(Cl)c(Cl)cc5[nH]4)C(=O)C3)n2)cc1 (stereo partly drawn)
IC50 [2]: 425 nM
clearance [4]: 115 mL/min/kg
half-life [5]: 1.3 h
bioavailability [6]: 3%
Vd [7]: 3 L/kg

O=C(CCN1CCC(c2nc(-c3cnccn3)no2)CC1)N1CCC[C@H]1c1nc2cc(Cl)c(Cl)cc2[nH]1
IC50 [2]: 435 nM

Cn1nc(C2CCN(CCC(=O)N3CCC[C@H]3c3nc4cc(Cl)c(Cl)cc4[nH]3)CC2)cc1-c1ccncc1
concentration at 4 h [8]: 4.6 nM
inhibition (Mus musculus [9]): Active
concentration at 168 h [10]: 290 nM
inhibition (Mus musculus [11]): Active
IC50 [2]: 6.7 nM
concentration at 4 h [12]: 54 nM
clearance [4]: 65 mL/min/kg
concentration at 168 h [13]: 210 nM
Kp at 0.5 h [14]: 0.2
half-life [5]: 4.1 h
Activity (Mus musculus [15]): Active
Kp at 4 h [16]: 13
Kp at 0.5 h [17]: 1.4
IC50 [1]: 0.8 nM
Activity (Mus musculus [18]): Active
Activity (Mus musculus [19]): Active
concentration at 168 h [20]: 90 nM
Kp at 4 h [21]: 0.88
bioavailability [6]: 4%
inhibition in vivo at 60 mg/kg (Mus musculus [22]): 80%
concentration at 0.5 h [23]: 70 nM
concentration at 4 h [24]: 4 nM
concentration at 0.5 h [25]: 51 nM
Vd [7]: 9.4 L/kg
concentration at 4 h [26]: 4 nM
inhibition in vivo at 60 mg/kg (Mus musculus [27]): 55%
Activity (Mus musculus [28]): Active
concentration at 0.5 h [29]: 10 nM
concentration at 0.5 h [30]: 54 nM

O=C(CCN1CCC(c2cc(-c3ccncc3)[nH]n2)CC1)N1CCC[C@H]1c1nc2cc(Cl)c(Cl)cc2[nH]1
IC50 [2]: 485 nM

O=C(CCN1CCC(c2cc[nH]n2)CC1)N1CCC[C@H]1c1nc2cc(Cl)c(Cl)cc2[nH]1
IC50 [2]: 290 nM

O=C(CCN1CCC(c2nc(-c3ccccn3)no2)CC1)N1CCC[C@H]1c1nc2cc(Cl)c(Cl)cc2[nH]1
IC50 [2]: 173 nM
IC50 [1]: 3.5 nM

CC(C)(CCCC(=O)N1CCC[C@H]1c1nc2cc(Cl)c(Cl)cc2[nH]1)N1CCC(c2nc(-c3ccccn3)no2)CC1
IC50 [2]: 113 nM
clearance [4]: 60 mL/min/kg
half-life [5]: 3.1 h
IC50 [1]: 19 nM
bioavailability [6]: 3%
Vd [7]: 12 L/kg

O=C(CCN1CCC(c2nc(-c3ncccn3)no2)CC1)N1CCC[C@H]1c1nc2cc(Cl)c(Cl)cc2[nH]1
IC50 [2]: 745 nM
